Experimental data from patent US20250206732A1, “COMPOUNDS AND METHODS FOR THE TARGETED DEGRADATION OF KRAS” (Arvinas Operations, Inc., priority 2022, published 2025).

Biological target: T1, AsPC-1 HiBiT-KRASG12D (Homo sapiens, UniProt P01116, G12D)
T1 construct: insert the HiBiT tag onto the N-terminus of one or more of the endogenous KRAS alleles; endogenous in cells; host or cells: AsPC-1 (ATCC CRL-1682), CRISPR-Cas9 knock-in clone, one tagged allele
Experiment: HiBiT degradation assay (G12D), AsPC-1 HiBiT-KRASG12D cells
Assay type: cell-based
Conditions: 24 hours treatment; for Dmax: ASPC1, AsPC-1 HiBiT-KRASG12D cells, maximum degradation observed; for DC50: AsPC-1 HiBiT-KRASG12D cells, HiBiT luminescence
Procedure, shortened: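 AsPC-1 cells (homozygous G12D) carrying a CRISPR knock-in N-terminal HiBiT tag on endogenous KRAS were treated with compounds for 24 hours at 37° C, 5% CO2, in triplicate. Alamar blue viability was read first, then cells were washed and lysed with Nano-Glo HiBiT reagent for 45 minutes before luminescence reading.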

T1 sequence (P01116 1-188 isoform P01116-2 G12D): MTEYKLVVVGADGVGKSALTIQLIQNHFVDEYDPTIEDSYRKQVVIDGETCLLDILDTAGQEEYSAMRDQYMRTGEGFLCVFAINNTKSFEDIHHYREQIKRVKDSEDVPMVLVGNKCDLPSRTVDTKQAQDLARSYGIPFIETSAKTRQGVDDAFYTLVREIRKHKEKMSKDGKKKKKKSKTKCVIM

SMILES | Dmax [%] | DC50 [nM]
CCc1cccc2cc(O)cc(-c3ncc4c(N5CC6CCC(C5)N6)nc(OCCN5CC(CC6CCN(c7cc([C@@H](C(=O)N8C[C@H](O)C[C@H]8C(=O)N[C@@H](C)c8ccc(-c9scnc9C)cc8)C(C)C)on7)CC6)C5)nc4c3F)c12 [Compound 234, (2S,4R)-1-[(2S)-2-(3-{4-[(1-{2-[(4-{3,8-diazabicyclo[3.2.1]octan-3-yl}-7-(8-ethyl-3-hydroxynaphthalen-1-yl)-8-fluoropyrido[4,3-d]pyrimidin-2-yl)oxy]ethyl}azetidin-3-yl)methyl]piperidin-1-yl}-1,2-oxazol-5-yl)-3-methylbutanoyl]-4-hydroxy-N-[(1S)-1-[4-(4-methyl-1,3-thiazol-5-yl)phenyl]ethyl] pyrrolidine-2-carboxamide] | 20 to 60 | 1000 to 3000
C#Cc1c(F)ccc2cccc(-c3ncc4c(N5CC6CCC(C5)N6)nc(OC[C@]56CCCN5[C@H](COC(=O)N5CCN(c7cc(C(C(=O)N8C[C@H](O)C[C@H]8C(=O)N[C@@H](C)c8ccc(-c9scnc9C)cc8)C(C)C)on7)CC5)CC6)nc4c3F)c12 (single isomer, unassigned) [Compound 270, [(3S,7aR)-7a-{[(4-{3,8-diazabicyclo[3.2.1]octan-3-yl}-7-(8-ethynyl-7-fluoronaphthalen-1-yl)-8-fluoropyrido[4,3-d]pyrimidin-2-yl)oxy]methyl}-hexahydro-1H-pyrrolizin-3-yl]methyl 4-{5-[(2R*)-1-[(2S,4R)-4-hydroxy-2-{[(1S)-1-[4-(4-methyl-1,3-thiazol-5-yl)phenyl]ethyl]carbamoyl}pyrrolidin-1-yl]-3-methyl-1-oxobutan-2-yl]-1,2-oxazol-3-yl}piperazine-1-carboxylate] | 80 to 100 | < 600
Cc1ncsc1-c1ccc([C@H](C)NC(=O)[C@@H]2C[C@@H](O)CN2C(=O)[C@@H](c2cc(N3CCN(C(=O)OC[C@@H]4CC[C@@]5(COc6nc(N7CC8CCC(C7)N8)c7cnc(-c8cc(O)cc9cccc(Cl)c89)c(F)c7n6)CCCN45)CC3)no2)C(C)C)cc1 (relative stereo) [Compound 268, ((3S,7aR)-7a-(((4-((1R,5S)-3,8-diazabicyclo[3.2.1]octan-3-yl)-7-(8-chloro-3-hydroxynaphthalen-1-yl)-8-fluoropyrido[4,3-d]pyrimidin-2-yl)oxy)methyl)hexahydro-1H-pyrrolizin-3-yl)methyl 4-(5-((R)-1-((2S,4R)-4-hydroxy-2-(((S)-1-(4-(4-methylthiazol-5-yl)phenyl)ethyl)carbamoyl)pyrrolidin-1-yl)-3-methyl-1-oxobutan-2-yl)isoxazol-3-yl) piperazine-1-carboxylate] | 80 to 100 | < 600
C#Cc1c(F)ccc2cc(O)cc(-c3ncc4c(N5CC6CCC(C5)N6)nc(OCCN5CCC(C6CCN(c7cc([C@H](C(=O)N8C[C@H](O)C[C@H]8C(=O)N[C@@H](C)c8ccc(-c9scnc9C)cc8)C(C)C)on7)CC6)CC5)nc4c3F)c12 [Compound 176, (2S,4R)-1-[(2R)-2-[3-(1′-{2-[(4-{3,8-diazabicyclo[3.2.1]octan-3-yl}-7-(8-ethynyl-7-fluoro-3-hydroxynaphthalen-1-yl)-8-fluoropyrido[4,3-d]pyrimidin-2-yl)oxy]ethyl}-[4,4′-bipiperidin]-1-yl)-1,2-oxazol-5-yl]-3-methylbutanoyl]-4-hydroxy-N-] | 80 to 100 | < 600
CCc1cccc2cc(O)cc(-c3ncc4c(N5CC6CCC(C5)N6)nc(O[C@H](C)CN5CCC6(CC5)CN(c5cc([C@H](C(=O)N7C[C@H](O)C[C@H]7C(=O)N[C@@H](C)c7ccc(-c8scnc8C)cc7)C(C)C)on5)C6)nc4c3F)c12 [Compound 25, (2S,4R)-1-[(2R)-2-(3-{7-[(2R)-2-[(4-{3,8-diazabicyclo[3.2.1]octan-3-yl}-7-(8-ethyl-3-hydroxynaphthalen-1-yl)-8-fluoropyrido[4,3-d]pyrimidin-2-yl)oxy]propyl]-2,7-diazaspiro[3.5]nonan-2-yl}-1,2-oxazol-5-yl)-3-methylbutanoyl]-4-hydroxy-N-[(1S)-1-[4-(4-methyl-1,3-thiazol-5-yl)phenyl]ethyl]pyrrolidine-2-carboxamide] | 20 to 60 | 600 to 1000
